# According to patent publication US20060153933A1 (priority 2002, published 2006):
# Read-outs that look alike come from different tables or passages of the source.
# How the values were obtained:
# Format in all cases: in vivo
# [1] = tested on: Plasmopara viticola (PLASVI); settings: in vivo
# [2] = tested on: Plasmopara viticola (PLASVI); assay: whole plant or invertebrate
# [3] = tested on: Phytophthora infestans (PHYTIN); assay: whole plant or invertebrate
# [4] = tested on: Phytophthora infestans (PHYTIN); settings: 1DC; 1.85 ppm alone
structure (smiles),measurement,setting,value
"COCC(=O)N(c1c(C)cccc1C)[C@H](C)C(=O)OC [Mefenoxam, mefenoxam]",% Disease Control (Observed),[1],94.7%
same,% Disease Control (Observed),"[2]; 1DP, 0.21 ppm alone",33.3%
same,% Disease Control (Observed),"[2]; 1DP, 0.62 ppm alone",82.5%
same,% Disease Control (Observed),"[2]; PLASVI 2DP, applied alone at 11.1 ppm",38.6%
same,% Disease Control (Observed),"[2]; PLASVI 2DP, applied alone at 33.3 ppm",66.7%
same,% Disease Control (Observed),"[3]; 1DP, 0.60 ppm alone",12.3%
same,% Disease Control (Observed),"[3]; PHYTIN 2DP, applied alone at 3.7 ppm",12.3%
same,% Disease Control (Observed),"[3]; PHYTIN 2DP, applied alone at 11.1 ppm",17.5%
same,% Disease Control (Observed),[4],56.1%
